Assays:
Format in all cases: cell-based, Diaphorina citri
[1] = system: neuron 7B (rhinarial plate on flagellomere 7); conditions: for odor response (frequency of action potentials during stimulus minus baseline), 7B: Table 1, odor diluted to 1%, 50 μL in cartridge; as to response to ultra-prolonged activators, 7B: key: 0, no response; +, >50 spikes/second; ++, >100 spikes/second; +++, >150 spikes/second
[2] = system: neuron 4C (rhinarial plate on flagellomere 4); assay: single-sensillum electrophysiology, odor response of neuron 4C; conditions: for odor response (frequency of action potentials during stimulus minus baseline), 4C: Table 1, odor diluted to 1%, 50 μL in cartridge; as to response to ultra-prolonged activators, 4C: key: 0, no response; +, >50 spikes/second; ++, >100 spikes/second; +++, >150 spikes/second
[3] = system: neuron 7C (rhinarial plate on flagellomere 7); assay: single-sensillum electrophysiology, odor response of neuron 7C; conditions: for odor response (frequency of action potentials during stimulus minus baseline), 7C: Table 1, odor diluted to 1%, 50 μL in cartridge
[4] = system: neuron 7A (rhinarial plate on flagellomere 7); assay: single-sensillum electrophysiology, odor response of neuron 7A; conditions: for odor response (frequency of action potentials during stimulus minus baseline), 7A: Table 1, odor diluted to 1%, 50 μL in cartridge; as to all read-outs here: key: 0, no response; +, >50 spikes/second; ++, >100 spikes/second; +++, >150 spikes/second
[5] = system: neuron 4A (rhinarial plate on flagellomere 4); assay: single-sensillum electrophysiology, odor response of neuron 4A; conditions: for odor response (frequency of action potentials during stimulus minus baseline), 4A: Table 1, odor diluted to 1%, 50 μL in cartridge
[6] = system: neuron 2C (rhinarial plate on flagellomere 2); assay: single-sensillum electrophysiology, odor response of neuron 2C; conditions: for odor response (frequency of action potentials during stimulus minus baseline), 2C: Table 1, odor diluted to 1%, 50 μL in cartridge
[7] = system: neuron 6C (rhinarial plate on flagellomere 6); assay: single-sensillum electrophysiology, odor response of neuron 6C; conditions: for odor response (frequency of action potentials during stimulus minus baseline), 6C: Table 1, odor diluted to 1%, 50 μL in cartridge
[8] = system: neuron 2B (rhinarial plate on flagellomere 2); assay: single-sensillum electrophysiology, odor response of neuron 2B; conditions: for odor response (frequency of action potentials during stimulus minus baseline), 2B: Table 1, odor diluted to 1%, 50 μL in cartridge
[9] = system: neuron 6B (rhinarial plate on flagellomere 6); assay: single-sensillum electrophysiology, odor response of neuron 6B; conditions: for odor response (frequency of action potentials during stimulus minus baseline), 6B: Table 1, odor diluted to 1%, 50 μL in cartridge
[10] = system: neuron 4B (rhinarial plate on flagellomere 4); conditions: for odor response (frequency of action potentials during stimulus minus baseline), 4B: Table 1, odor diluted to 1%, 50 μL in cartridge
[11] = system: neuron 6A (rhinarial plate on flagellomere 6); assay: single-sensillum electrophysiology, odor response of neuron 6A; conditions: for odor response (frequency of action potentials during stimulus minus baseline), 6A: Table 1, odor diluted to 1%, 50 μL in cartridge
[12] = system: neuron 2A (rhinarial plate on flagellomere 2); assay: single-sensillum electrophysiology, odor response of neuron 2A; conditions: for odor response (frequency of action potentials during stimulus minus baseline), 2A: Table 1, odor diluted to 1%, 50 μL in cartridge; as to all read-outs here: key: 0, no response; +, >50 spikes/second; ++, >100 spikes/second; +++, >150 spikes/second
[13] = Table 3, 10^−2 in paraffin oil, 50 μL, odor puff of 0.5 sec

| Structure (SMILES) | odor response (frequency of action potentials during stimulus minus baseline), 7B [1] | odor response (frequency of action potentials during stimulus minus baseline), 4C [2] | odor response (frequency of action potentials during stimulus minus baseline), 7C [3] | odor response (frequency of action potentials during stimulus minus baseline), 7A [4] | odor response (frequency of action potentials during stimulus minus baseline), 4A [5] | odor response (frequency of action potentials during stimulus minus baseline), 2C [6] | odor response (frequency of action potentials during stimulus minus baseline), 6C [7] | odor response (frequency of action potentials during stimulus minus baseline), 2B [8] | odor response (frequency of action potentials during stimulus minus baseline), 6B [9] | odor response (frequency of action potentials during stimulus minus baseline), 4B [10] | odor response (frequency of action potentials during stimulus minus baseline), 6A [11] | odor response (frequency of action potentials during stimulus minus baseline), 2A [12] | other results |
| --- | --- | --- | --- | --- | --- | --- | --- | --- | --- | --- | --- | --- | --- |
| CC(=O)CCC=C(C)C [6-methyl-5-hepten-2-one] | 0 | 0 | 0 | 0 | 0 | + (+, >50 spikes/second) | 0 | 0 | 0 | 0 | 0 | 0 | – |
| C=C(C)[C@H]1CC=C(C)C(=O)C1 [(+)-carvone] | 0 | 0 | 0 | 0 | 0 | 0 | 0 | 0 | ++ (++, >100 spikes/second) | ++ (++, >100 spikes/second) | 0 | 0 | response to ultra-prolonged activators, 7B [1, 13]: 0; response to ultra-prolonged activators, 4C [2, 13]: 0; response to ultra-prolonged activators, 7C [3, 13]: 0; response to ultra-prolonged activators, 7A [4, 13]: 0; response to ultra-prolonged activators, 4A [5, 13]: 0; response to ultra-prolonged activators, 2C [6, 13]: 0; response to ultra-prolonged activators, 6C [7, 13]: 0; response to ultra-prolonged activators, 2B [8, 13]: 0; response to ultra-prolonged activators, 6B [9, 13]: ++ (++, >100 spikes/second); response to ultra-prolonged activators, 4B [10, 13]: ++ (++, >100 spikes/second); response to ultra-prolonged activators, 6A [11, 13]: 0; response to ultra-prolonged activators, 2A [12, 13]: 0 |
| CCC/C=C/C=O [E2-hexenal] | 0 | 0 | 0 | 0 | 0 | ++ (++, >100 spikes/second) | 0 | 0 | + (+, >50 spikes/second) | + (+, >50 spikes/second) | 0 | 0 | – |
| C=C/C(C)=C/CC=C(C)C [E-β-Ocimene] | 0 | 0 | 0 | 0 | 0 | ++ (++, >100 spikes/second) | 0 | 0 | 0 | 0 | 0 | 0 | – |
| CCC/C=C\CO [Z2-hexanol] | 0 | 0 | 0 | 0 | 0 | 0 | 0 | 0 | + (+, >50 spikes/second) | + (+, >50 spikes/second) | 0 | 0 | – |
| CC/C=C\CC=O [Z3-hexenal] | + (+, >50 spikes/second) | 0 | 0 | 0 | ++ (++, >100 spikes/second) | 0 | 0 | 0 | 0 | 0 | ++ (++, >100 spikes/second) | 0 | – |
| CC/C=C\CCO [Z3-hexenol] | 0 | 0 | 0 | 0 | 0 | 0 | 0 | 0 | + (+, >50 spikes/second) | + (+, >50 spikes/second) | 0 | 0 | – |
| C=C/C(C)=C\C/C=C(\C)CCC=C(C)C [ZE-α-farnesene] | 0 | 0 | 0 | 0 | 0 | + (+, >50 spikes/second) | 0 | 0 | 0 | 0 | 0 | 0 | – |
| CC(=O)c1ccccc1 [acetophenone] | 0 | 0 | + (+, >50 spikes/second) | 0 | 0 | 0 | 0 | 0 | ++ (++, >100 spikes/second) | ++ (++, >100 spikes/second) | 0 | 0 | – |
